Laboratory results taken from patent US20030125234A1, “Alteration of protein stability” (priority 2001, published 2003).

How the values were obtained:
Assay type in all cases: biochemical
Bovine insulin = target: T1, Bovine insulin (Bos taurus, UniProt P01317); assay: Insulin aggregation (turbidity at 360 nm) induced by DTT; conditions: Insulin 0.25 mg/mL, 25° C., DTT; compound 100×; standard deviation in parenthesis
T1 construct: purchased Sigma, St. Louis, Mo., USA
Method: (§1) Bovine insulin [Sigma, St. Louis, Mo., USA] was dissolved in phosphate saline (PBS) (50 mM sodium biphosphate, 100 mM sodium chloride), pH 7.0, bovine alpha-lactalbumin [Sigma] in 50 mM sodium phosphate, 100 mM sodium chloride and 2 mM EDTA, pH 6.2, chicken egg white lysozyme [Sigma] in 100 mM Tris, 1 mM EDTA, pH 8.2, human acidic fibroblast growth factor (FGF-1) in 6.2 mM sodium biphosphate, 120 mM sodium chloride, pH 7.2, porcine somatotropin (pST) [provided by Pfizer, Inc., Groton, Conn., USA] in 10 mM phosphate, pH 6. 1, human apolactoferrin (HLF) [Sigma] in 20 mM HEPES, 154 mM NaCl, pH 7.4, porcine heart citrate synthase (CS) in 40 mM HEPES, 50 mM KCl, 10 mM (NH4)2SO4 mM potassium acetate, pH 7.8, and yeast alcohol dehydrogenase (ADH) [Sigma] in pH 7.0 PBS. Selection of buffer solutions was based on an extensive series of preliminary studies to obtain appropriate insolubilization kinetics as described below.
(§2) Copper O-phenanthroline (1,10-phenanthroline) was prepared by mixing copper sulfate hexahydrate [Fisher] and o-phenanthroline [Sigma] in a 1:2 ratio. 1 M Dithiothreitol (DTT) was prepared at pH 7.0 PBS. Polyethylene glycol (M.W. 8000, Union Carbide, Danbury, Conn., USA) (PEG) was prepared at 20 mg/mL in 10 mM phosphate, pH 6.1.
(§3) The following compounds were obtained from Sigma and used without further purification: oxalic acid, sodium malonate, succinic acid, glutaric acid, adipic acid, pimelic acid, suberic acid, azelaic acid, guanidine hydrochloride, ammonium formate, beta-alanine, 4-aminobutyric acid, 5-aminovaleric acid, 6-aminocaproic acid, 7-aminoheptanoic acid, hydrazine, ethylenediamine, 1,3-diaminopropane, 1,4-diaminobutane, 1,5-diaminopentane, 1,6-diaminohexane, 1,7-diaminoheptane, Glu-Glu, Glu-Lys, Lys-Lys, diglycine, triglycine, tetraglycine, pentaglycine, and hexaglycine. […] Triglycine and tetraglycine were dissolved in pH 8.6 PBS, while pentaglycine and hexaglycine were dissolved in pH 10.6 PBS.
(§4) Each was either dissolved in pH 7.0 PBS, or pH 6.1 10 mM phosphate, and adjusted to the same pH.
(§5) Protein aggregation was monitored for 1 hour at 360 nm using an HP8453 UV-visible spectrophotometer system [Hewlett Packard, Germany]. […] Insulin (0.25 mg/mL (4.39E-5 M)) aggregation was monitored at 25° C. after addition of potential inhibitors and 20 μL of 1 M DTT (1.27E-4 M). Alpha-lactabumin (0.4 mg/mL (2.82E-5 M)) aggregation was monitored at 37° C. in the presence of 20 μL of 1 M DTT (1.27E-4 M). Lysozyme (0.4 mg/mL (2.86E-5 M)) aggregation was monitored at 25° C. in the presence of 20 μL of 1 M DTT (1.27E-4 M). FGF-1 (50 μg/mL (3.12E-6 M)) aggregation was monitored at 50° C. Porcine somatotropin (1.27 mg/mL (5.76E-5 M)) aggregation was monitored at 60° C. in the presence of PEG 8000 (20 mg/mL) which was included to enhance the protein association process through a simple exclusion volume effect. HLF (0.4 mg/mL (5.23E-6 M)) aggregation was monitored at 43° C. in the presence of 1.27E-4 M DTT. Citrate synthase (96 μg/mL (9.80E-7 M)) aggregation was monitored at45° C. ADH (1 mg/mL (7.14E-6 M)) was monitored at 37° C. following the addition of 7.76E-5 M Cu(OP)2. Aggregation was compared to protein in the absence of the particular dipolar compound. After stirring, experiments were initiated by the addition of proteins followed by stressing reagents to 1 cm pathlength cuvettes employing a seven-position thermostatted sample holder that was cycled at 30-second intervals. Alternatively, a microtiter plate reader was employed under the same conditions in a 96 well format.
(§6) All optical density (OD)360nm versus time results were exported into Excel [Microsoft] for data analysis.

[1] = target: T2, chicken egg white lysozyme (Gallus gallus, UniProt P00698); assay: Lysozyme aggregation (turbidity at 360 nm) induced by DTT; conditions: Lysozyme 0.4 mg/mL, 25° C., DTT; compound 1,000×; standard deviation in parenthesis
T2 construct: chicken egg white lysozyme [Sigma]; purchased Sigma; host or cells: egg white
T2 sequence (P00698 19-147): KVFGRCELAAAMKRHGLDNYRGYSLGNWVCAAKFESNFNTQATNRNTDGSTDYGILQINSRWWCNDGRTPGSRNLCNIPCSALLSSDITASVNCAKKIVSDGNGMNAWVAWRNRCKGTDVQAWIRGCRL
Method: as §1, §2, §3, §4, §5, §6

bovine alpha-lactalbumin = target: T3, bovine alpha-lactalbumin (Bos taurus, UniProt P00711); assay: Alpha-lactalbumin aggregation (turbidity at 360 nm) induced by DTT; conditions: for inhibition index: α Lactalbumin 0.4 mg/mL, 37° C., DTT, compound 1,000×, standard deviation in parenthesis
T3 construct: purchased Sigma
T3 sequence (P00711 20-142): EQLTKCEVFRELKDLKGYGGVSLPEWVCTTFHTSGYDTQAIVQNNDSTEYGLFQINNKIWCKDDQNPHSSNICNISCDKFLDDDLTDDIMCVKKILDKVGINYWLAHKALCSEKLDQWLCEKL
Method: as §1, §2, §3, §4, §5, §6

[2] = target: human acidic fibroblast growth factor (FGF-1) (Homo sapiens, UniProt P05230); assay: FGF-1 thermal aggregation (turbidity at 360 nm); conditions: FGF-1 50 μg/mL, 50° C., standard deviation in parenthesis
Sequence of human acidic fibroblast growth factor (FGF-1) (P05230 whole entry): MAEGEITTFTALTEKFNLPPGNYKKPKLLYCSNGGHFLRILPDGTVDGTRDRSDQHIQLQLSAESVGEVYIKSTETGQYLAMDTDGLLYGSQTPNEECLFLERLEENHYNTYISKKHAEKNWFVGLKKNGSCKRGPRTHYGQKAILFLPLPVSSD
Method: as §1, §3, §4, §5
(§7) All optical density (OD)360nm versus time results were exported into Excel [Microsoft] for data analysis. […] The maximum rate of change in OD versus time plots (r) was used to determine the rate of the reaction from the slope at this point.

[3] = target: T4, human apolactoferrin (HLF) (Homo sapiens, UniProt P02788); assay: HLF aggregation (turbidity at 360 nm) induced by DTT; conditions: HLF 0.4 mg/mL, 43° C., DTT, head 10,000×, standard deviation in parenthesis
T4 construct: purchased Sigma
T4 sequence (P02788 20-710): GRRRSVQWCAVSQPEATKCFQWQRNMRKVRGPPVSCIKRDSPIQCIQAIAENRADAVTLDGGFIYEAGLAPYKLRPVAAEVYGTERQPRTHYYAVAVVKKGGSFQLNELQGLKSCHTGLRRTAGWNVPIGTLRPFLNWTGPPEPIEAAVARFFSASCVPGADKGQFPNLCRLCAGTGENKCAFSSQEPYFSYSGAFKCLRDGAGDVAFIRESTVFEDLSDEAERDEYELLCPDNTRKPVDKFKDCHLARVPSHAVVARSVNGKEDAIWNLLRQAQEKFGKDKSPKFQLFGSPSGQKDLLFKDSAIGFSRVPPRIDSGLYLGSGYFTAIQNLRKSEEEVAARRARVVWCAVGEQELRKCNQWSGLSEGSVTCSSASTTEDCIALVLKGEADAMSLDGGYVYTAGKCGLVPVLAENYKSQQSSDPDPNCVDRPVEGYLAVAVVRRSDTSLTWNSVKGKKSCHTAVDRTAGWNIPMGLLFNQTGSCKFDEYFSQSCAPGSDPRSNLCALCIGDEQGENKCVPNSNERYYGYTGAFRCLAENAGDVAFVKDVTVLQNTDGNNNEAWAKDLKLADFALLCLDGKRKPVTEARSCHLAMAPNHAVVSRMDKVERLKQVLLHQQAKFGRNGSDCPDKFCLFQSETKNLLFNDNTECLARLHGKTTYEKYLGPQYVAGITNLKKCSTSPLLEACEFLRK
Method: as §1, §2, §3, §4, §5, §6

[4] = target: T5, porcine heart citrate synthase (CS) (Sus scrofa, UniProt P00889); assay: Citrate synthase thermal aggregation (turbidity at 360 nm); conditions: CS 96 μg/mL, 45° C., standard deviation in parenthesis
T5 construct: porcine heart citrate synthase (CS); from tissue; host or cells: porcine heart
T5 sequence (P00889 28-464): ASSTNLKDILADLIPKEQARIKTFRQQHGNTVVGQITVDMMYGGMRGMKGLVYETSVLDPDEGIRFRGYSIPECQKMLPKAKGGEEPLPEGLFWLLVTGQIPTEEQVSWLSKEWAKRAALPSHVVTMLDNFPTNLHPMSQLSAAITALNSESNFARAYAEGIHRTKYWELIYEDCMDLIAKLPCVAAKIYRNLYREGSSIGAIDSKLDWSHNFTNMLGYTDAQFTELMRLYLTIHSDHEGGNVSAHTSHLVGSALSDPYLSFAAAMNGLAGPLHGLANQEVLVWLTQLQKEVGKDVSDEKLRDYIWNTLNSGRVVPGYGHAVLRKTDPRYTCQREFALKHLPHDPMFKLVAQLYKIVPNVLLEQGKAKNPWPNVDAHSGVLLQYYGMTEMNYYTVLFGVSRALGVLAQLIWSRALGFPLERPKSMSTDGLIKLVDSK
Method: as §1, §3, §4, §5, §7

[5] = target: T6, yeast alcohol dehydrogenase (ADH) (Saccharomyces cerevisiae, UniProt P00330); assay: ADH oxidation-induced aggregation (turbidity at 360 nm), Cu(OP)2; conditions: ADH 1 mg/mL, 37° C., Cu(OP)2
T6 construct: purchased Sigma
T6 sequence (P00330 2-348 limits assumed): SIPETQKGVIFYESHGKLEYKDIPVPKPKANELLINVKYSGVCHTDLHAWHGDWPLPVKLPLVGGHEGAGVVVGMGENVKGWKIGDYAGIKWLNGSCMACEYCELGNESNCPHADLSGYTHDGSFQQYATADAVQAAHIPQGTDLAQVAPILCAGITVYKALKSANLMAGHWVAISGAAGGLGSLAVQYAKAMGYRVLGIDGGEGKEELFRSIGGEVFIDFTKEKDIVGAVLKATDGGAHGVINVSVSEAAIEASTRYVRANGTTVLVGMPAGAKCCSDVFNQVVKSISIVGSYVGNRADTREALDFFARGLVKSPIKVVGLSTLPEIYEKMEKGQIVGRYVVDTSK
Method: as §1, §2, §3, §4, §5, §6

[6] = target: T7, porcine somatotropin (pST) (Sus scrofa, UniProt P01248); assay: Porcine somatotropin aggregation (turbidity at 360 nm) with PEG 8000; conditions: pST 1.27 mg/mL, 60° C., compound 100X, standard deviation in parenthesis
T7 construct: purchased Pfizer, Inc., Groton, Conn., USA (provided, not bought)
T7 sequence (P01248 27-216): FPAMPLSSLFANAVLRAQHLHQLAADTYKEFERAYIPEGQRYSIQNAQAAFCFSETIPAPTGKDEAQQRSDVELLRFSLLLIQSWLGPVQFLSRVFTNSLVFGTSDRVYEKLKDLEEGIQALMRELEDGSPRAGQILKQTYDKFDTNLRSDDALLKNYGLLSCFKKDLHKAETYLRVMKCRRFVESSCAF
Method: as §1, §2, §3, §4, §5, §6

[7] = compound 1,000X, standard deviation in parenthesis
[8] = compound 10,000X molar excess, Infinite = complete inhibition of aggregation over one hour

T1 sequence (P01317 25-54 limits assumed): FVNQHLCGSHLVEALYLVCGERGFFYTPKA
T1 sequence (P01317 85-105 limits assumed): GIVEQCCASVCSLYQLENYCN

Compound	inhibition index (Bovine insulin)	inhibition index [1]	inhibition index (bovine alpha-lactalbumin)	inhibition index ([2]; compound 1,000×)	inhibition index ([3]; first HLF column)	inhibition index ([4]; compound 1,000X)	inhibition index [5, 7]	inhibition index [6]	inhibition of α-lactalbumin aggregation, in words (bovine alpha-lactalbumin)	inhibition index [5, 8]	inhibition index ([2]; compound 10,000×)	inhibition index ([3]; second HLF column)	inhibition index ([4]; compound 10,000X)	inhibition index ([4]; compound 50,000X)
^+NH3-(Lys)^+-(Gly)n-(Glu)^−-COO^− [KGE]	0.6 (0.3)	2.8 (0.8)	0.3 (0.2)	1.7 (0.4)	0.9 (0.1)	1.2 (0.2)	1.3 (0.1)	0.7 (0.0)	–	–	–	–	–	–
^+NH3-(Lys)^+-(Gly)n-(Lys)^+-CONH2 [^+NH3—(K)^+—(G)4—(K)^+—CONH2]	1.6 (0.3)	1.4 (0.5)	1.4 (0.3)	2.0 (1.0)	1.9 (0.2)	0.8 (0.2)	1.5 (0.3)	0.9 (0.0)	–	–	–	–	–	–
^+NH3-(Lys)^+-(Gly)n-(Glu)^−-COO^− [KGGGE]	0.8 (0.1)	3.4 (0.1)	0.6 (0.1)	1.9 (0.2)	0.8 (0.1)	1.5 (0.1)	1.2 (0.1)	0.6 (0.1)	–	–	–	–	–	–
CH3—NH2-(Glu)^−-(Gly)n-(Glu)^−-COO^− [CH3—NH2—(E)^−—(G)1—(E)^−—COO^−]	0.5 (0.2)	0.9 (0.1)	0.2 (0.1)	1.9 (0.1)	1.6 (0.1)	0.8 (0.1)	1.6 (0.1)	1.0 (0.1)	–	–	–	–	–	–
^+NH3-(Lys)^+-(Gly)n-(Lys)^+-CONH2 [^+NH3—(K)^+—(G)2—(K)^+—CONH2]	1.8 (0.1)	0.4 (0.1)	3.3 (0.9)	1.8 (0.3)	1.3 (0.1)	0.7 (0.2)	0.8 (0.1)	1.2 (0.2)	–	–	–	–	–	–
hexaglycine	1.5 (0.7)	0.0 (0.0)	4.2 (1.1)	–	1.7 (1.5)	0.5 (0.1)	1.7 (0.5)	0.7 (0.1)	Potent inhibitors	20.3	–	–	–	–
KGGGGGE [^+NH3-(Lys)^+-(Gly)n-(Glu)^−-COO^−, n = 5]	1.3 (0.3)	1.5 (0.4)	1.8 (0.2)	1.4 (0.3)	0.8 (0.1)	2.0 (0.2)	1.4 (0.2)	0.5 (0.1)	–	–	–	–	–	–
^+NH3-(Lys)^+-(Gly)n-(Glu)^−-COO^− [KGGGGE]	1.0 (0.1)	1.9 (0.5)	0.5 (0.1)	1.9 (0.4)	0.8 (0.1)	1.8 (0.2)	1.4 (0.1)	0.6 (0.1)	–	–	–	–	–	–
^+NH3-(Lys)^+-(Gly)n-(Glu)^−-COO^− [KGGE]	1.0 (0.3)	2.6 (0.4)	0.5 (0.2)	1.2 (0.2)	0.7 (0.1)	1.4 (0.4)	0.8 (0.1)	0.6 (0.1)	–	–	–	–	–	–
Cl.N=C(N)N [guanidine HCl, guanidine hydrochloride]	0.9 (0.4)	0.9 (0.2)	1.7 (0.6)	1.2 (0.2)	–	–	–	–	–	0.2 (0.1)	2.8 (0.9)	0.9 (0.1)	0.6 (0.4)	0.4 (0.1)
